Our source for the IC50, Activity and inhibition values is ChEMBL document CHEMBL3882247, “Use of dibenzofuranone derivatives to inhibit kinases” (2013).

The source made the active and inactive calls. The rule behind the calls is not given here.

Test [1] concerns the target Casein kinase 2 (Rattus norvegicus, UniProt P19139). Put plainly: Inhibition of rat liver CK2 using RRRADDSDDDDD as substrate after 10 mins in presence of [gamma-33P]-ATP.
Test [2] has as its system LNCaP. Kind of test: Cytotoxicity against human LNCAP cells assessed as decrease in cell viability after 24 to 72 hrs by MTT assay. Type of test: functional, cell-based.
The target in test [3] is T1, Casein kinase II (Homo sapiens) (UniProt P67870+P68400+P19784). Put plainly: Inhibition of CK2 in human LNCAP cell lysates after 24 to 48 hrs in presence of [gamma-32P]ATP by radiometric analysis. It is filed as cell-based.
In test [4] the target is T1, Casein kinase II (Homo sapiens). Put plainly: Inhibition of CK2 (unknown origin) assessed as residual activity using E-peptide as substrate at 10 uM incubated for 10 mins prior to testing by capillary electrophoretic analysis. Type of test: protein-complex assay.
The subject of test [5] is LNCaP. Kind of test: Induction of apoptosis in human LNCAP cells assessed as PARP cleavage after 24 to 48 hrs by Western blot analysis. Type of test: functional, cell-based.
For test [6], the system named is LNCaP. Kind of test: Cytotoxicity against human LNCAP cells assessed as cell viability at 50 uM after 72 hrs by MTT assay. It is filed as functional.
Test [7] deals with LNCaP. Put plainly: Induction of apoptosis in human LNCAP cells assessed as PARP cleavage at 25 to 50 uM after 24 to 48 hrs by Western blot analysis. It is filed as functional, cell-based.
In test [8] the test system is LNCaP. Put plainly: Cytotoxicity against human LNCAP cells assessed as cell viability at 25 uM after 24 hrs by MTT assay. Type of test: functional.
The subject of test [9] is LNCaP. Put plainly: Cytotoxicity against human LNCAP cells assessed as cell viability at 50 uM after 24 hrs by MTT assay. Type of test: functional.
Test [10] concerns LNCaP. Put plainly: Cytotoxicity against human LNCAP cells assessed as cell viability at 25 uM after 48 hrs by MTT assay. It is filed as functional.
Test [11] deals with LNCaP. Put plainly: Cytotoxicity against human LNCAP cells assessed as cell viability at 50 uM after 48 hrs by MTT assay. It is filed as functional.

Chain of Casein kinase 2 (P67874 whole entry): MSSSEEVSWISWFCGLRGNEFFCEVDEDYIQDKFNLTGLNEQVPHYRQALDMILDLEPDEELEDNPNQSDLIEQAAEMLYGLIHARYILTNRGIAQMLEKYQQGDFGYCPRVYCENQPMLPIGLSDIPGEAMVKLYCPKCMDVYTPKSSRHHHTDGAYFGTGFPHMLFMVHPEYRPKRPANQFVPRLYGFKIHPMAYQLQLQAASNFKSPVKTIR
Chain of Casein kinase 2 (P19139 whole entry): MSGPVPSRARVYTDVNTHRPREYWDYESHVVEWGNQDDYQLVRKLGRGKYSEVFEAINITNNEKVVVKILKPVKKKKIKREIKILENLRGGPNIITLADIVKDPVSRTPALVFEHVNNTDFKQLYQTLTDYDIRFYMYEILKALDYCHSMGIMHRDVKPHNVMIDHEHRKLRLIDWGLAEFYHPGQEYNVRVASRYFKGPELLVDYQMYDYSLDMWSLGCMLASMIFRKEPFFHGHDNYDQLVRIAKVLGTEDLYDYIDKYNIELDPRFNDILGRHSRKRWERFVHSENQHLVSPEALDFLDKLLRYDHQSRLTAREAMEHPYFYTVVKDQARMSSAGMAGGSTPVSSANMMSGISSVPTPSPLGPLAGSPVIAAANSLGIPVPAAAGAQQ

Consider `O=c1oc2c(O)c(O)cc3c(=O)oc4c(O)c(O)cc1c4c23` [ELLAGIC ACID], for which the concentration for half-maximal inhibition (IC50) in [1] came to 40 nM.
In the case of `COc1ccc(N/C=C2\C(=O)CCc3c2oc2cc(Cl)c(O)c(Cl)c32)cc1`, the Activity result in test [2] was “Dose-dependent effect”. For the same molecule, the inhibition result in [3] was “Active”.
For the molecule `Cc1ccc(N/C=C2\C(=O)CCc3c2oc2c(Cl)c(Cl)c(O)cc32)cc1`, the Activity was below 4% in test [4], “Dose-dependent effect” in test [5] and “Dose-dependent effect” in test [2].
Regarding `Brc1c(Br)c(Br)c2[nH]nnc2c1Br`, the outcome in test [6], in test [7], in test [8], in test [9], in test [10] and in test [11] was Active. In addition, the Activity result in test [2] is “Dose-dependent effect”.
As for `CCOC(=O)c1oc2c(Cl)c(Cl)c(OC(C)=O)c(C#N)c2c1N`, the Activity in [4] amounted to 31%.
Consider `CC(C)=CC(=O)c1oc2c(Cl)c(Cl)c(O)c(C#N)c2c1N`, for which, in test [4], the Activity is below 4%.
With `COc1ccc(/N=C/c2c(O)ccc3c2oc2cc(Cl)c(O)c(Cl)c23)cc1`, in test [2], the Activity entry was “Dose-dependent effect”. Besides, the inhibition result in test [3] was “Active”.
As for `CC(=O)Oc1c(Cl)c(Cl)c2oc(C(=O)C=C(C)C)c(N)c2c1C#N`, the Activity in test [4] is 7%.
